According to patent US20230024302A1, “2,3,5-TRISUBSTITUTED PYRAZOLO[1,5-A]PYRIMIDINE COMPOUNDS” (Arcus Biosciences, Inc., priority 2019, published 2023):
Like-named read-outs stand apart in the source and are kept apart here.

Key:
[1] = target: T1, PI3Kγ (Homo sapiens, UniProt P48736); assay: PI3Kγ cellular assay in THP-1 cells (AKT pS473 AlphaLISA); format: cell-based
T1 construct: host or cells: THP-1
Summary of the method: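 Endogenous AKT S473 phosphorylation, detected by AlphaLISA in lysates, serves as the PI3Kγ activity read-out in stimulated, serum-starved THP-1 cells (1.8×10^5/well).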

[2] = target: T2, PI3Kγ (p120γ) (Homo sapiens, UniProt P48736); assay: Inhibition of PI3K kinase activity (ADP Glo), PI3Kγ; conditions: read-out: biochemical potency (PI3Kγ IC50)
T2 construct: purchased Promega V1761
Summary of the method: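 IC50 values come from a 4-parameter nonlinear fit of ADP-Glo luminescence, which measures ADP produced as PIP2 is phosphorylated to PIP3. The p120γ enzyme (2× stock 8 nM) sat with compound 1 h at rt before substrate (2× stocks: 50 μM ATP, 0.1 mg/ml PIP2) was added. Phosphorylation then proceeded 60 min at rt.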

[3] = Table 2, rhMCP-1 stimulated AKT pS473, read-out: cellular potency (PI3Kγ IC50)
[4] = Table 3, rhMCP-1 stimulated AKT pS473, read-out: cellular potency (PI3Kγ IC50)

T1 sequence (P48736 whole entry): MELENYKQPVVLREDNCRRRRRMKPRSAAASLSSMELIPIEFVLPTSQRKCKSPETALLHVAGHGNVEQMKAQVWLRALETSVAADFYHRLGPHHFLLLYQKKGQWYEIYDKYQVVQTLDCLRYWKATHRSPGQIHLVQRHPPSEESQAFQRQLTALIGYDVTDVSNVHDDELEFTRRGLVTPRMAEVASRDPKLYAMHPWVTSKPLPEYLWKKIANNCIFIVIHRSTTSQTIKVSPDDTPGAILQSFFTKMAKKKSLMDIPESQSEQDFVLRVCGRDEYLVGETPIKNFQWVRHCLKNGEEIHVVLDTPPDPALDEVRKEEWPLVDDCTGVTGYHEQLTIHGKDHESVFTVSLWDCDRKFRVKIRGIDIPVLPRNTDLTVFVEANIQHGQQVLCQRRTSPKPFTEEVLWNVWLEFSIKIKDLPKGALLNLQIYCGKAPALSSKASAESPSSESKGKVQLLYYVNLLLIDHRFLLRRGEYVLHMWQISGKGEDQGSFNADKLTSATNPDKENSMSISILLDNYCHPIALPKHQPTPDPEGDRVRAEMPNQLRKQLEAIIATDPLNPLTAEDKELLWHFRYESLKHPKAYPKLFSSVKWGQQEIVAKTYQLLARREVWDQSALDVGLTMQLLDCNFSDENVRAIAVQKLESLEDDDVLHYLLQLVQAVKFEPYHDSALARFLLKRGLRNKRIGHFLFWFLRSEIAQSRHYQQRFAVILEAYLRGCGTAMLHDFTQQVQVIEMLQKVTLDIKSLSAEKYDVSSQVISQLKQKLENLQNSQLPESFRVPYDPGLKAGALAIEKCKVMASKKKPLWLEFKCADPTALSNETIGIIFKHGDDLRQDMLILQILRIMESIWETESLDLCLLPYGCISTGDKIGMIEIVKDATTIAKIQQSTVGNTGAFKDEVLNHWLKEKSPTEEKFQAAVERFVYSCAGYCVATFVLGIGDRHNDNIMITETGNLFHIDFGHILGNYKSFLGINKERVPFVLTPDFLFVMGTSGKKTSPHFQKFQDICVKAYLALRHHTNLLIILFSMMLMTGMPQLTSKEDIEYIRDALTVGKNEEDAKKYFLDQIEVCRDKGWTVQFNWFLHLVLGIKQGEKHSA
T2 sequence (P48736 whole entry): as above

SMILES | IC50 [1, 3] [µM] | IC50 ([2]; Table 2, p120γ) [µM] | IC50 [1, 4] [µM] | IC50 ([2]; Table 3, p120γ) [µM]
Cc1csc(NC(=O)c2c(N)nn3ccc(-c4cc(C)c5c(c4)CN([C@@H](C)C4CC4)C5=O)nc23)n1 [Example 300] | > 1 | < 0.1 | – | –
Cc1cc(-c2ccn3nc(N)c(C(=O)NC4CC4)c3n2)cc2c1C(=O)N([C@@H](C1CC1)C(F)(F)F)C2 [Example 301] | 0.1 to 1 | < 0.1 | – | –
Cc1cc(-c2ccn3nc(N)c(C(=O)NC4CC4)c3n2)cc2c1C(=O)N(C(C)C)C2 [Example 304] | 0.1 to 1 | < 0.1 | – | –
CCN1Cc2cc(-c3ccn4nc(N)c(C(=O)NC5CC5)c4n3)cc(C)c2C1=O [Example 305] | 0.1 to 1 | < 0.1 | – | –
Cc1cc(-c2ccn3nc(N)c(C(=O)NC4CC4)c3n2)cc2c1C(=O)N(CC1CC1)C2 [Example 307] | 0.1 to 1 | < 0.1 | – | –
CC[C@H](CO)N1Cc2cc(-c3ccn4nc(N)c(C(=O)NC5CC5)c4n3)cc(C)c2C1=O [Example 308] | 0.1 to 1 | < 0.1 | – | –
Cc1cc(-c2ccn3nc(N)c(C(=O)NC4CC4)c3n2)cc2c1C(=O)N([C@H](CO)C1CC1)C2 [Example 310] | 0.1 to 1 | < 0.1 | – | –
Cc1cc(-c2ccn3nc(N)c(C(=O)NC4CC4)c3n2)cc2c1C(=O)N([C@@H](CO)C1CC1)C2 [Example 311] | 0.1 to 1 | < 0.1 | – | –
Cc1cc(-c2ccn3nc(N)c(C(=O)NC4COC4)c3n2)cc2c1C(=O)N(C(C)(C)CO)C2 [Example 315] | 0.1 to 1 | < 0.1 | – | –
Cc1cc(-c2ccn3nc(N)c(C(=O)N[C@H](C)c4ccccc4F)c3n2)cc2c1C(=O)N(C(C)(C)CO)C2 [Example 317] | > 1 | < 0.1 | – | –
Cc1cc(-c2ccn3nc(N)c(C(=O)NC4CC4)c3n2)cc2c1C(=O)N([C@H]1CC[C@@H](O)C1)C2 [Example 322] | 0.1 to 1 | < 0.1 | – | –
Cc1cc(-c2ccn3nc(N)c(C(=O)NC(C)CO)c3n2)cc2c1C(=O)N([C@@H]1CCC[C@@H](O)C1)C2 (stereo partly shown) [Example 325] | > 1 | < 0.1 | – | –
Cc1cc(-c2ccn3nc(N)c(C(=O)NC(C)CO)c3n2)cc2c1C(=O)N([C@@H]1CCC[C@H](O)C1)C2 (stereo partly shown) [Example 326] | > 1 | < 0.1 | – | –
Cc1cc(-c2ccn3nc(N)c(C(=O)NC4CC4)c3n2)cc2c1C(=O)N([C@H]1CCC[C@H](O)C1)C2 [Example 327] | 0.1 to 1 | < 0.1 | – | –
Cc1cc(-c2ccn3nc(N)c(C(=O)NC4CC4)c3n2)cc2c1C(=O)N([C@@H]1CCC[C@@H](O)C1)C2 [Example 328] | 0.1 to 1 | < 0.1 | – | –
Cc1cc(-c2ccn3nc(N)c(C(=O)NC(C)CO)c3n2)cc2c1C(=O)N([C@H](C)c1ccncc1)C2 (stereo partly shown) [Example 330] | > 1 | < 0.1 | – | –
Cc1cc(-c2ccn3nc(N)c(C(=O)NC4CC4)c3n2)cc2c1C(=O)N([C@H](C)c1ccncc1)C2 [Example 331] | > 1 | < 0.1 | – | –
Cc1cc(-c2ccn3nc(N)c(C(=O)NC4CC4)c3n2)cc2c1C(=O)N([C@H](C)c1cccnc1)C2 [Example 333] | > 1 | < 0.1 | – | –
C[C@@H](C1CC1)N1Cc2cc(-c3ccn4nc(N)c(C(=O)NC(C)(C)CO)c4n3)cc(C(F)(F)F)c2C1=O [Example 335] | – | – | 0.1 to 1 | < 0.1
C[C@@H](C1CC1)N1Cc2cc(-c3ccn4nc(N)c(C(=O)NCCCS(C)(=O)=O)c4n3)cc(C(F)(F)F)c2C1=O [Example 336] | – | – | 0.1 to 1 | < 0.1
Nc1nn2ccc(-c3cc4c(c(C(F)(F)F)c3)C(=O)N([C@@H](CO)C3CC3)C4)nc2c1C(=O)NC1CC1 [Example 340] | – | – | 0.1 to 1 | < 0.1
C[C@@H](C1CC1)N1Cc2cc(-c3ccn4nc(N)c(C(=O)NC[C@@H](O)CO)c4n3)cc(C(F)(F)F)c2C1=O [Example 344] | – | – | 0.1 to 1 | < 0.1
C[C@@H](C1CC1)N1Cc2cc(-c3ccn4nc(N)c(C(=O)N[C@H]5CC[C@@](O)(C(F)(F)F)CC5)c4n3)cc(C(F)(F)F)c2C1=O [Example 345] | – | – | 0.1 to 1 | < 0.1
C[C@H](O)CCNC(=O)c1c(N)nn2ccc(-c3cc4c(c(C(F)(F)F)c3)C(=O)N([C@@H](C)C3CC3)C4)nc12 [Example 346] | – | – | 0.1 to 1 | < 0.1
C[C@@H](C1CC1)N1Cc2cc(-c3ccn4nc(N)c(C(=O)NC5CCS(=O)(=O)CC5)c4n3)cc(C(F)(F)F)c2C1=O [Example 347] | – | – | 0.1 to 1 | < 0.1
C[C@@H](C1CC1)N1Cc2cc(-c3ccn4nc(N)c(C(=O)Nc5ccnc(C#N)c5)c4n3)cc(C(F)(F)F)c2C1=O [Example 350] | – | – | 0.1 to 1 | < 0.1

The next lines start with the values.

IC50 [1, 3] [µM] | IC50 ([2]; Table 2, p120γ) [µM] | IC50 [1, 4] [µM] | IC50 ([2]; Table 3, p120γ) [µM] | SMILES
> 1 | < 0.1 | – | – | Cc1cc(-c2ccn3nc(N)c(C(=O)Nc4ccccc4)c3n2)cc2c1C(=O)N([C@@H](C)C1CC1)C2 [Example 298]
> 1 | < 0.1 | – | – | Cc1cc(-c2ccn3nc(N)c(C(=O)Nc4ccc(Cl)cc4)c3n2)cc2c1C(=O)N([C@@H](C)C1CC1)C2 [Example 299]
0.1 to 1 | < 0.1 | – | – | CC[C@H](C)N1Cc2cc(-c3ccn4nc(N)c(C(=O)NC5CC5)c4n3)cc(C)c2C1=O [Example 302]
0.1 to 1 | < 0.1 | – | – | Cc1cc(-c2ccn3nc(N)c(C(=O)NC4CC4)c3n2)cc2c1C(=O)N(C1CC1)C2 [Example 303]
0.1 to 1 | < 0.1 | – | – | CC[C@@H](C)N1Cc2cc(-c3ccn4nc(N)c(C(=O)NC5CC5)c4n3)cc(C)c2C1=O [Example 306]
0.1 to 1 | < 0.1 | – | – | CC[C@@H](CO)N1Cc2cc(-c3ccn4nc(N)c(C(=O)NC5CC5)c4n3)cc(C)c2C1=O [Example 309]
0.1 to 1 | < 0.1 | – | – | Cc1cc(-c2ccn3nc(N)c(C(=O)N[C@@H](CO)C4CC4)c3n2)cc2c1C(=O)N(C(C)(C)CO)C2 [Example 312]
0.1 to 1 | < 0.1 | – | – | Cc1cc(-c2ccn3nc(N)c(C(=O)N[C@@H](C)c4ccccc4F)c3n2)cc2c1C(=O)N(C(C)(C)CO)C2 [Example 313]
0.1 to 1 | < 0.1 | – | – | Cc1cc(-c2ccn3nc(N)c(C(=O)NC4(C)COC4)c3n2)cc2c1C(=O)N(C(C)(C)CO)C2 [Example 314]
0.1 to 1 | < 0.1 | – | – | Cc1cc(-c2ccn3nc(N)c(C(=O)NC4CC4)c3n2)cc2c1C(=O)N(C(C)(C)CO)C2 [Example 316]
0.1 to 1 | < 0.1 | – | – | Cc1cc(-c2ccn3nc(N)c(C(=O)NC4(C)COC4)c3n2)cc2c1C(=O)N(CC(C)(C)O)C2 [Example 318]
0.1 to 1 | < 0.1 | – | – | Cc1cc(-c2ccn3nc(N)c(C(=O)NC4CC4)c3n2)cc2c1C(=O)N(CC(C)(C)O)C2 [Example 319]
0.1 to 1 | < 0.1 | – | – | Cc1cc(-c2ccn3nc(N)c(C(=O)NC4COC4)c3n2)cc2c1C(=O)N(CC(C)(C)O)C2 [Example 320]
0.1 to 1 | < 0.1 | – | – | Cc1cc(-c2ccn3nc(N)c(C(=O)N[C@@H](CO)C4CC4)c3n2)cc2c1C(=O)N(CC(C)(C)O)C2 [Example 321]
0.1 to 1 | < 0.1 | – | – | Cc1cc(-c2ccn3nc(N)c(C(=O)NC4CC4)c3n2)cc2c1C(=O)N([C@H]1CC[C@H](O)C1)C2 [Example 323]
0.1 to 1 | < 0.1 | – | – | Cc1cc(-c2ccn3nc(N)c(C(=O)NC4CC4)c3n2)cc2c1C(=O)N([C@@H]1CCC[C@H](O)C1)C2 [Example 324]
> 1 | < 0.1 | – | – | Cc1cc(-c2ccn3nc(N)c(C(=O)NC(C)CO)c3n2)cc2c1C(=O)N([C@H]1CCC[C@H](O)C1)C2 (stereo partly shown) [Example 329]
> 1 | < 0.1 | – | – | Cc1cc(-c2ccn3nc(N)c(C(=O)NC(C)CO)c3n2)cc2c1C(=O)N([C@H](C)c1cccnc1)C2 (stereo partly shown) [Example 332]
– | – | 0.1 to 1 | < 0.1 | CC(=O)N1CC(NC(=O)c2c(N)nn3ccc(-c4cc5c(c(C(F)(F)F)c4)C(=O)N([C@@H](C)C4CC4)C5)nc23)C1 [Example 334]
– | – | 0.1 to 1 | < 0.1 | C[C@@H](C1CC1)N1Cc2cc(-c3ccn4nc(N)c(C(=O)NCCS(C)(=O)=O)c4n3)cc(C(F)(F)F)c2C1=O [Example 337]
– | – | 0.1 to 1 | < 0.1 | C[C@@H](C1CC1)N1Cc2cc(-c3ccn4nc(N)c(C(=O)NC5(CO)COC5)c4n3)cc(C(F)(F)F)c2C1=O [Example 338]
– | – | 0.1 to 1 | < 0.1 | COC[C@@H](C)NC(=O)c1c(N)nn2ccc(-c3cc4c(c(C(F)(F)F)c3)C(=O)N([C@@H](C)C3CC3)C4)nc12 [Example 339]
– | – | 0.1 to 1 | < 0.1 | C[C@@H](O)CCNC(=O)c1c(N)nn2ccc(-c3cc4c(c(C(F)(F)F)c3)C(=O)N([C@@H](C)C3CC3)C4)nc12 [Example 341]
– | – | 0.1 to 1 | < 0.1 | C[C@@H](C1CC1)N1Cc2cc(-c3ccn4nc(N)c(C(=O)NC5(CO)CC5)c4n3)cc(C(F)(F)F)c2C1=O [Example 342]
– | – | 0.1 to 1 | < 0.1 | CC[C@H](C)NC(=O)c1c(N)nn2ccc(-c3cc4c(c(C(F)(F)F)c3)C(=O)N([C@@H](C)C3CC3)C4)nc12 [Example 343]
– | – | 0.1 to 1 | < 0.1 | C[C@@H](C1CC1)N1Cc2cc(-c3ccn4nc(N)c(C(=O)NC[C@H](O)CO)c4n3)cc(C(F)(F)F)c2C1=O [Example 348]
– | – | 0.1 to 1 | < 0.1 | C[C@@H](C1CC1)N1Cc2cc(-c3ccn4nc(N)c(C(=O)NC5CC5)c4n3)cc(C(F)(F)F)c2C1=O [Example 349]
